Source: patent publication US20120202801A1, “METHODS FOR TREATING BREAST CANCER” (priority 2009, published 2012)

These compounds were tested on hypoxia-inducible endogenous VEGF expression (assay: Hypoxia-inducible endogenous VEGF expression ELISA in HeLa cells, dose-response (EC50, Table 3)). Settings: Homo sapiens, read-out: ELISA EC50 μM.

Structure (SMILES) | EC50 [µM]
O=C(Oc1ccc(F)cc1)N1CCc2c([nH]c3ccc(Cl)cc23)C1c1ccc(OCCCCN2CCCCC2)cc1 (stereo not shown) [Compound 739] | < 0.008
CN1CCN(CCCCOc2ccc(C3c4[nH]c5ccc(Cl)cc5c4CCN3C(=O)Oc3ccc(F)cc3)cc2)CC1 (stereo not shown) [Compound 740] | 0.04 to 0.2
O=C(Oc1ccc(F)cc1)N1CCc2c([nH]c3ccc(Cl)cc23)C1c1ccc(OCCCCNCCCn2ccnc2)cc1 (stereo not shown) [Compound 741] | 0.04 to 0.2
O=C(Oc1ccc(F)cc1)N1CCc2c([nH]c3ccc(Cl)cc23)C1c1ccc(OCCCCCCNCCO)cc1 (stereo not shown) [Compound 772] | < 0.008
O=C(Oc1ccc(F)cc1)N1CCc2c([nH]c3ccc(Cl)cc23)C1c1ccc(OCCCCCCN2CCCC2)cc1 (stereo not shown) [Compound 773] | < 0.008
CC(C)NCCCCCCOc1ccc(C2c3[nH]c4ccc(Cl)cc4c3CCN2C(=O)Oc2ccc(F)cc2)cc1 (stereo not shown) [Compound 774] | 0.008 to 0.04
COCCCNCCCCCCOc1ccc(C2c3[nH]c4ccc(Cl)cc4c3CCN2C(=O)Oc2ccc(F)cc2)cc1 (stereo not shown) [Compound 775] | < 0.008
O=C(Oc1ccc(F)cc1)N1CCc2c([nH]c3ccc(Cl)cc23)C1c1ccc(OCCCCCCN2CCOCC2)cc1 (stereo not shown) [Compound 776] | < 0.008
O=C(Oc1ccc(F)cc1)N1CCc2c([nH]c3ccc(Cl)cc23)C1c1ccc(OCCCCCCN2CCCCC2)cc1 (stereo not shown) [Compound 777] | < 0.008
CN1CCN(CCCCCCOc2ccc(C3c4[nH]c5ccc(Cl)cc5c4CCN3C(=O)Oc3ccc(F)cc3)cc2)CC1 (stereo not shown) [Compound 778] | < 0.008
O=C(Oc1ccc(F)cc1)N1CCc2c([nH]c3ccc(Cl)cc23)C1c1ccc(OCCCCCCNCCCn2ccnc2)cc1 (stereo not shown) [Compound 779] | 0.04 to 0.2
O=C(Oc1ccc(Cl)cc1)N1CCc2c([nH]c3ccc(Cl)cc23)C1c1ccc(OCCCCCCNCCO)cc1 (stereo not shown) [Compound 782] | < 0.008
O=C(Oc1ccc(Cl)cc1)N1CCc2c([nH]c3ccc(Cl)cc23)C1c1ccc(OCCCCCCN2CCCC2)cc1 (stereo not shown) [Compound 783] | < 0.008
CC(C)NCCCCCCOc1ccc(C2c3[nH]c4ccc(Cl)cc4c3CCN2C(=O)Oc2ccc(Cl)cc2)cc1 (stereo not shown) [Compound 784] | < 0.008
COCCCNCCCCCCOc1ccc(C2c3[nH]c4ccc(Cl)cc4c3CCN2C(=O)Oc2ccc(Cl)cc2)cc1 (stereo not shown) [Compound 785] | < 0.008
O=C(Oc1ccc(Cl)cc1)N1CCc2c([nH]c3ccc(Cl)cc23)C1c1ccc(OCCCCCCN2CCOCC2)cc1 (stereo not shown) [Compound 786] | < 0.008
O=C(Oc1ccc(Cl)cc1)N1CCc2c([nH]c3ccc(Cl)cc23)C1c1ccc(OCCCCCCN2CCCCC2)cc1 (stereo not shown) [Compound 787] | < 0.008
CN1CCN(CCCCCCOc2ccc(C3c4[nH]c5ccc(Cl)cc5c4CCN3C(=O)Oc3ccc(Cl)cc3)cc2)CC1 (stereo not shown) [Compound 788] | 0.008 to 0.04
O=C(Oc1ccc(Cl)cc1)N1CCc2c([nH]c3ccc(Cl)cc23)C1c1ccc(OCCCCCCNCCCn2ccnc2)cc1 (stereo not shown) [Compound 789] | 0.04 to 0.2
NCC(O)COc1ccc(C2c3[nH]c4ccc(Cl)cc4c3CCN2C(=O)Oc2ccc(Cl)cc2)cc1 (stereo not shown) [Compound 846] | 0.04 to 0.2
CNCC(O)COc1ccc(C2c3[nH]c4ccc(Cl)cc4c3CCN2C(=O)Oc2ccc(Cl)cc2)cc1 (stereo not shown) [Compound 850] | 0.04 to 0.2
O=C(Oc1ccc(Cl)cc1)N1CCc2c([nH]c3ccc(Cl)cc23)C1c1ccc(OCCCN2CCOCC2)cc1 (stereo not shown) [Compound 894] | < 0.008
CC(=O)N1CCN(CCCOc2ccc(C3c4[nH]c5ccc(Cl)cc5c4CCN3C(=O)Oc3ccc(Cl)cc3)cc2)CC1 (stereo not shown) [Compound 903] | < 0.008
O=C(Oc1ccc(Cl)cc1)N1CCc2c([nH]c3ccc(Cl)cc23)C1c1ccc(OCC(O)CN2CCOCC2)cc1 (stereo not shown) [Compound 904] | < 0.008
COCCN(C)CCCOc1ccc(C2c3[nH]c4ccc(Cl)cc4c3CCN2C(=O)Oc2ccc(Cl)cc2)cc1 (stereo not shown) [Compound 908] | < 0.008

Structure (SMILES) | EC50 [µM]
COCCN(CCOC)CC(O)COc1ccc(C2c3[nH]c4ccc(Cl)cc4c3CCN2C(=O)Oc2ccc(F)cc2)cc1 (stereo not shown) [Compound 913] | < 0.008
COCCN(CCCOc1ccc(C2c3[nH]c4ccc(Cl)cc4c3CCN2C(=O)Oc2ccc(Cl)cc2)cc1)CCOC (stereo not shown) [Compound 916] | < 0.008
COCCN(CCOC)CC(O)COc1ccc(C2c3[nH]c4ccc(Cl)cc4c3CCN2C(=O)Oc2ccc(Cl)cc2)cc1 (stereo not shown) [Compound 918] | < 0.008
O=C(Oc1ccc(Cl)cc1)N1CCc2c([nH]c3ccc(Cl)cc23)C1c1ccc(OCC(O)CN2CCSCC2)cc1 (stereo not shown) [Compound 923] | < 0.008
O=C(Oc1ccc(F)cc1)N1CCc2c([nH]c3ccc(Cl)cc23)C1c1ccc(OCC(O)CN2CCSCC2)cc1 (stereo not shown) [Compound 925] | < 0.008
CN1CCCC(COc2ccc(C3c4[nH]c5ccc(Cl)cc5c4CCN3C(=O)Oc3ccc(F)cc3)cc2)C1 (stereo not shown) [Compound 932] | < 0.008
O=C(Oc1ccc(Cl)cc1)N1CCc2c([nH]c3ccc(Cl)cc23)C1c1ccc(OCCCN2CCSCC2)cc1 (stereo not shown) [Compound 933] | < 0.008
COCCN(C)CC(O)COc1ccc(C2c3[nH]c4ccc(Cl)cc4c3CCN2C(=O)Oc2ccc(F)cc2)cc1 (stereo not shown) [Compound 936] | < 0.008
CCN(CC)CC(O)COc1ccc(C2c3[nH]c4ccc(Cl)cc4c3CCN2C(=O)Oc2ccc(Cl)cc2)cc1 (stereo not shown) [Compound 938] | < 0.008
O=C(Oc1ccc(Cl)cc1)N1CCc2c([nH]c3ccc(Cl)cc23)C1c1ccc(OCCCN2CCN(CCO)CC2)cc1 (stereo not shown) [Compound 942] | 0.008 to 0.04
CCN(CC)CCCOc1ccc(C2c3[nH]c4ccc(Cl)cc4c3CCN2C(=O)Oc2ccc(Cl)cc2)cc1 (stereo not shown) [Compound 946] | 0.008 to 0.04
Cc1ccc(OC(=O)N2CCc3c([nH]c4ccc(Cl)cc34)C2c2ccc(OCC3CCCN(C)C3)cc2)cc1 (stereo not shown) [Compound 951] | 0.008 to 0.04
CN1CCCC(COc2ccc(C3c4[nH]c5ccc(Cl)cc5c4CCN3C(=O)Oc3ccccc3)cc2)C1 (stereo not shown) [Compound 952] | 0.008 to 0.04
CC(C)NCCCOc1ccc(C2c3[nH]c4ccc(Cl)cc4c3CCN2C(=O)Oc2ccc(Cl)cc2)cc1 (stereo not shown) [Compound 953] | 0.008 to 0.04
O=C(Oc1ccc(Cl)cc1)N1CCc2c([nH]c3ccc(Cl)cc23)C1c1ccc(OCC(O)CN2CCN(CCO)CC2)cc1 (stereo not shown) [Compound 960] | 0.008 to 0.04
CN1CCN(CCCOc2ccc(C3c4[nH]c5ccc(Cl)cc5c4CCN3C(=O)Oc3ccc(Cl)cc3)cc2)CC1 (stereo not shown) [Compound 961] | 0.008 to 0.04
CN1CCN(CC(O)COc2ccc(C3c4[nH]c5ccc(Cl)cc5c4CCN3C(=O)Oc3ccc(F)cc3)cc2)CC1 (stereo not shown) [Compound 963] | 0.008 to 0.04
COCCN(C)CC(O)COc1ccc(C2c3[nH]c4ccc(Cl)cc4c3CCN2C(=O)Oc2ccc(Cl)cc2)cc1 (stereo not shown) [Compound 964] | 0.008 to 0.04
CN1CCCC(COc2ccc(C3c4[nH]c5ccc(Cl)cc5c4CCN3C(=O)Oc3ccc(Cl)cc3)cc2)C1 (stereo not shown) [Compound 966] | 0.008 to 0.04
CN1CCN(CC(O)COc2ccc(C3c4[nH]c5ccc(Cl)cc5c4CCN3C(=O)Oc3ccc(Cl)cc3)cc2)CC1 (stereo not shown) [Compound 970] | 0.008 to 0.04
CN1CCCC(COc2ccc(C3c4[nH]c5ccc(Cl)cc5c4CCN3C(=O)Oc3ccccc3Cl)cc2)C1 (stereo not shown) [Compound 976] | 0.04 to 0.2
CC(C)NCC(O)COc1ccc(C2c3[nH]c4ccc(Cl)cc4c3CCN2C(=O)Oc2ccc(Cl)cc2)cc1 (stereo not shown) [Compound 977] | 0.04 to 0.2
COc1ccc(OC(=O)N2CCc3c([nH]c4ccc(Cl)cc34)C2c2ccc(OCC3CCCN(C)C3)cc2)cc1 (stereo not shown) [Compound 981] | 0.04 to 0.2
CC(=O)N1CCN(CCCOc2ccc(C3c4[nH]c5ccc(Cl)cc5c4CCN3C(=O)Oc3ccc(F)cc3)cc2)CC1 (stereo not shown) [Compound 988] | < 0.008
